In article PMC5371550, “GABAB receptor attenuation of GABAA currents in neurons of the mammalian central nervous system” (Physiological Reports, 2017):
pEC50, pIC50: −log10 of the molar value.

Experiments:
[1] = test system: T1, α-subunit containing GABAA receptor (GABAAR) from human amygdala; format: cell-based; conditions: antagonist against 50 μmol/L GABA; pH 7.4, room temperature
T1 construct: gene GABRA1

[2] = test system: T1, α-subunit containing GABAA receptor (GABAAR) from human amygdala; conditions: agonist; -70 mV, pH 7.4, room temperature

Compound `CN1CCc2cc3c(cc2[C@H]1[C@@H]1OC(=O)c2c1ccc1c2OCO1)OCO3` [bicuculline] has a pIC50 [1] of 5.10.
`NCc1cc(O)no1` [muscimol] gave a pEC50 [2] of 4.35.
